Key:
vascular permeability = assay: Inhibition of increased vascular permeability (acetic acid i.p., Evans blue dye leakage); format: in vivo, Male ddy mice; conditions: 100 mg/kg p.o., N = 9
Protocol: Inhibition of increased vascular permeability
Male ddy mice (6 weeks of age) were used in this experiment. Example 9 compound suspended in 5% gum arabic solution was administered p.o., 45 minutes before the i.v. injection of 1.0% Evans blue solution (0.1 ml/10 g B.W.). Immediately after the i.v. injection, 1.0% acetic acid solution was administered i.p. (0.1 ml/10 g B.W.). The mice were killed 30 minutes after the acetic acid injection. Peritoneal exudate was collected by washing out the peritoneal cavity with physiological saline and centrifuged at 3,000 r.p.m. After the centrifugation, spectrophotometry of the supernatant was measured at 630 nm. Results were expressed as dye leakage and percent inhibition.

Bovine serum albumin = Bovine serum albumin (Bos taurus, UniProt P02769); assay: biochemical
Bovine serum albumin, sequence (P02769 25-607): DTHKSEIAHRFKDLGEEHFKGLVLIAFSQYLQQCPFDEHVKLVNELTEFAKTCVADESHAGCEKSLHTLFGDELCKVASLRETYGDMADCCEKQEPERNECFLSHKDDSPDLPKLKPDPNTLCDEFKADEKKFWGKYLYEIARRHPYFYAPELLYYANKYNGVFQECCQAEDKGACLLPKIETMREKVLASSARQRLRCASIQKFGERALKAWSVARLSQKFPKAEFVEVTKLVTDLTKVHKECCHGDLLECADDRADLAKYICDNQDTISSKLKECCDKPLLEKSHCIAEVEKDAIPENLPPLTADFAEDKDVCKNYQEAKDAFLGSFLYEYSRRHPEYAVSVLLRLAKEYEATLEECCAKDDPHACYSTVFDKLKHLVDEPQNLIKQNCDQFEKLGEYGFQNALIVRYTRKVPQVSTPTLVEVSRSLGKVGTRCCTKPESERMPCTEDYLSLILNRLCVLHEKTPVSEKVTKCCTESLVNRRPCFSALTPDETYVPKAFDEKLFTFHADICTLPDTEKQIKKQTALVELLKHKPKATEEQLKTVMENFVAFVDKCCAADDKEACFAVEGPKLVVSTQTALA
Protocol: Inhibitory action against thermal denaturation of protein
Bovine serum albumin was dissolved into 1/15M phosphoric acid buffer solution, which was then adjusted to 0.7%. After adding the solution of the present invention compound thereto, it was heated at 65° C. for 7-8 minutes. After cooled, the absorbance at 660 nm was measured, compared with the absorbance of the reference to derive the inhibitory rate and then the concentration necessary to inhibit 50% was obtained.

bone resorption = assay: Inhibitory action against bone resorption (45Ca release from embryo front arm bone, IL-1β); format: cell-based; conditions: Rattus norvegicus; 25 μg/ml, with interleukin-1β, 72 hours; read-out: Inhibitory rate against bone resorption (%)
Protocol: Inhibitory action against bone resorption
According to Raisz et al method (J. Clin. Invest., 155, 103 (1965)), bone piece of front arm of […] labelled with radioactive calcium (^45 Ca) was prepared in order to measure bone resorption. That is, the radioactive calcium (^45 CaCl2; 200 μCi) was injected under the skin to the back of rats in the 17th day of pregnancy and two days later they were killed with exsanguination by cutting of the carotid artery thereof. After the embryos were picked up and washed with sterilized phosphated buffer solution, the bone of front arm was taken out, which was then rendered free of the attached muscle and cartilage of the both ends, and said piece of bone was cultivated in the culture medium of BGJb.
Next, according to the method of Tsuda et al (J. Bone Miner. Metab., 1, 207 (1986)), the effect of the present invention compound against the bone resorption was determined, which are described as follows.
The piece of bone was put on a milipore-filter, and was pre-cultivated, in a well with 24 holes plate accomodating 0.6 ml culture medium of BGJb, at 37° C. and under 5% carbon dioxide. After the precultivation for 24 hours, said bone with the filter were transferred into a test culture medium added with interleukin-1β (1L-1β) or with both 1L-1β and drugs and the cultivation was continued. After 72 hours cultivation in said test culture medium, 0.3 ml of the supernatant was taken out and ^45 Ca released from the piece of bone was determined. After the piece of bone was immersed in 0.3 ml of 1N hydrochloric acid for more than 1.5 hours, 10 ml of ACSII was added thereto and the radioactivity was determined. Furthermore, the activity of bone resorption was represented by the ratio (percentage) of ^45 Ca released in the supernatant of cultivation to the total radioactivity which had been contained in the piece of bone (the sum of radioactivities in the piece of bone and the supernatant of cultivation). […]

`O=C(O)c1cc(Br)cc2c1NCCCC2` [Example 9, 7-Bromo2,3,4,5-tetrahydro-1H-1-benzazepine-9-carboxylic acid] was tested, and the “Dye leakage (mean ± S.E)” value (vascular permeability; 45 minutes before Evans blue, control 25.77 ± 1.81, *significantly different from control, p < 0.01) was 17.43 ± 1.38 µg/mL, the “Inhibition (%)” value (vascular permeability) was 32.3% and the IC50 (Bovine serum albumin) was 132 µM.
For `O=C(O)c1cc([N+](=O)[O-])cc2c1NCCCC2` [Example 10, 7-Nitro-2,3,4,5-tetrahydro-1H-1-benzazepine-9-carboxylic acid], the IC50 (Bovine serum albumin) was 71 µM.
`N#Cc1cc2c(c(C(=O)O)c1)NCCCC2` [Example 11 c), 7-Cyano-2,3,4,5-tetrahydro-1H-1-benzazepine-9-carboxylic acid] showed an inhibition at 25 µg/mL (bone resorption) of 54%.
`O=C(O)c1cc2c(c(C(=O)O)c1)NCCCC2` [Example 12, 2,3,4,5-Tetrahydro-1H-1-benzazepine-7,9-di-carboxylic acid] gave an inhibition at 25 µg/mL (bone resorption) of 84%.
With `CC(C)Oc1ccc2c(=O)c(-c3ccccc3)coc2c1` [Ipriflavone, 7-isopropoxy isoflavone, reference compound] the inhibition at 25 µg/mL (bone resorption) was 58%.
